Counter-ions that a name gives are not always drawn. ± gives the uncertainty stated by the source.

Experimental findings from the supplement of paper PMC3770661 are described below.

In this assay the test system is HepG2 (L1.3 5'UTR promoter firefly luciferase reporter). As to the kind of experiment: L1 promoter activity (FLuc/RLuc) relative to DMSO vehicle control (% of control); higher = stronger L1 promoter activation.
[1] abbreviates: concentration (uM unless unit written): 10, treatment time: 6 h.
The mark [2] stands for this setting: concentration (uM unless unit written): 10, treatment time: 24 h.
Where [3] appears, read: concentration (uM unless unit written): 25, treatment time: 6 h.
The mark [4] stands for this setting: concentration (uM unless unit written): 25, treatment time: 24 h.
The mark [5] stands for this setting: concentration (uM unless unit written): 50, treatment time: 6 h.
Where [6] appears, read: concentration (uM unless unit written): 50, treatment time: 24 h.
The mark [7] stands for this setting: concentration (uM unless unit written): 100, treatment time: 6 h.
Where [8] appears, read: concentration (uM unless unit written): 100, treatment time: 24 h.
The mark [9] stands for this setting: concentration (uM unless unit written): 500, treatment time: 6 h.
The mark [10] stands for this setting: concentration (uM unless unit written): 500, treatment time: 24 h.
[11] abbreviates: concentration (uM unless unit written): 1000, treatment time: 6 h.
Setting [12] is: concentration (uM unless unit written): 2500, treatment time: 6 h.
[13] abbreviates: concentration (uM unless unit written): 2500, treatment time: 24 h.
Where [14] appears, read: concentration (uM unless unit written): 1, treatment time: 6 h.
The mark [15] stands for this setting: concentration (uM unless unit written): 1, treatment time: 24 h.
[16] abbreviates: concentration (uM unless unit written): 3, treatment time: 6 h.
[17] abbreviates: concentration (uM unless unit written): 3, treatment time: 24 h.
Where [18] appears, read: concentration (uM unless unit written): 250, treatment time: 6 h.
The mark [19] stands for this setting: concentration (uM unless unit written): 5, treatment time: 6 h.
Setting [20] is: concentration (uM unless unit written): 5, treatment time: 24 h.

For the compound `COC(=O)C1=C(C)NC(C)=C(C(=O)OC)C1c1ccccc1[N+](=O)[O-]` [Nifedipine], the L1 promoter activity is, setting by setting: under setting [1], 96.1 ± 10; under setting [2], 104 ± 8.8; under setting [3], 98.4 ± 2.3; under setting [4], 126 ± 5.6; under setting [5], 97.2 ± 12; under setting [6], 104 ± 7. The L1 promoter activity stood at 88.6 ± 24 under setting [7] and 91.2 ± 2.6 under setting [8].
In the case of `CC[C@H]1/C=C/C=C/C[C@@H](C)[C@H](O)[C@@](C)(O)C(=O)[C@@H](C)[C@H](O)[C@@H](C)C(=O)[C@@H](C)[C@H](O)[C@@H](C)/C=C/C(=O)O[C@@H]2[C@H](C)[C@H](CC1)O[C@]1(CC[C@H](C)[C@H](C[C@@H](C)O)O1)[C@H]2C` [Oligomycin], the L1 promoter activity stood at 89.6 ± 5.8 (concentration (uM unless unit written): 0.75, treatment time: 6 h); 82.1 ± 19 (concentration (uM unless unit written): 0.75, treatment time: 24 h); 82.5 ± 15 (concentration (uM unless unit written): 1.5, treatment time: 6 h); 77.2 ± 1.9 (concentration (uM unless unit written): 1.5, treatment time: 24 h).
Take `CC(C)=CC(=O)C=C(C)C` [Phorone]: the L1 promoter activity was determined as 131 ± 16 under setting [9]; 118 ± 21 under setting [10]; 131 ± 6.7 under setting [11]; 118 ± 23 (concentration (uM unless unit written): 1000, treatment time: 24 h).
In turn, `CC[C@H](C)C(=O)O[C@H]1C[C@H](O)C=C2C=C[C@H](C)[C@H](CC[C@@H](O)C[C@@H](O)CC(=O)O)[C@H]21` [Pravastatin] yielded an L1 promoter activity under setting [12] of 130 ± 8.2 and an L1 promoter activity under setting [13] of 102 ± 7.9.
As for `CC(=O)[C@H]1CC[C@H]2[C@@H]3CCC4=CC(=O)CC[C@]4(C)[C@H]3CC[C@]12C` [Progesterone], the L1 promoter activity under setting [3] was found to be 101 ± 7.1; the L1 promoter activity under setting [4] is 81.7 ± 12; the L1 promoter activity under setting [5] came out at 90.4 ± 15; the L1 promoter activity under setting [6] amounted to 67.8 ± 7.1; the L1 promoter activity under setting [7] is 73.7 ± 6.7.
`CC(CN1c2ccccc2Sc2ccccc21)N(C)C` (stereo unspecified) [Promethazine hydrochloride] displayed an L1 promoter activity under setting [5] of 73.9 ± 13.
For `C=C(C)[C@H]1Cc2c(ccc3c2O[C@@H]2COc4cc(OC)c(OC)cc4[C@@H]2C3=O)O1` [Rotenone], the L1 promoter activity was found to be 113 ± 28 (concentration (uM unless unit written): 0.075, treatment time: 6 h); 90.8 ± 3.4 (concentration (uM unless unit written): 0.075, treatment time: 24 h); 97.8 ± 8.2 under setting [1]; 93.6 ± 11 under setting [5].
Take `NC(=O)c1ccccc1O` [Salicylamide]: the L1 promoter activity by setting is: (concentration (uM unless unit written): 1250, treatment time: 6 h) 146 ± 22; (concentration (uM unless unit written): 1250, treatment time: 24 h) 175 ± 16; under setting [12], 139 ± 9.1; (concentration (uM unless unit written): 5000, treatment time: 6 h) 151 ± 25.
On to `CCC(C)(C)C(=O)O[C@H]1C[C@@H](C)C=C2C=C[C@H](C)[C@H](CC[C@@H]3C[C@@H](O)CC(=O)O3)[C@H]21` [Simvastatin], for which the L1 promoter activity reads like this: under setting [14], 94.1 ± 18; under setting [15], 100 ± 12; under setting [16], 93.1 ± 7.7; under setting [17], 117 ± 14; (concentration (uM unless unit written): 6, treatment time: 6 h) 108 ± 18; (concentration (uM unless unit written): 6, treatment time: 24 h) 107 ± 15.
Regarding `CC(=O)S[C@@H]1CC2=CC(=O)CC[C@]2(C)[C@H]2CC[C@@]3(C)[C@@H](CC[C@@]34CCC(=O)O4)[C@H]12` [Spironolactone], the L1 promoter activity was 104 ± 9.8 under setting [14]; 89.3 ± 3.8 under setting [15]; 97.8 ± 9.3 under setting [16]; 100 ± 8.9 under setting [17]; 88.5 ± 9.3 (concentration (uM unless unit written): 30, treatment time: 6 h); 111 ± 12 (concentration (uM unless unit written): 30, treatment time: 24 h).
Under setting [18], `CC1=C(CC(=O)O)c2cc(F)ccc2/C1=C\c1ccc([S+](C)[O-])cc1` (stereo unspecified) [Sulindac] gave an L1 promoter activity of 218 ± 44.
Take `CC(=O)O[C@H]1C(=O)[C@@]2(C)[C@H]([C@H](OC(=O)c3ccccc3)[C@]3(O)C[C@H](OC(=O)[C@H](O)[C@@H](NC(=O)c4ccccc4)c4ccccc4)C(C)=C1C3(C)C)[C@]1(OC(C)=O)CO[C@@H]1C[C@@H]2O` [Taxol]: the L1 promoter activity reads like this: under setting [19], 104 ± 17; under setting [20], 86.9 ± 18; under setting [1], 123 ± 35; under setting [2], 81.9 ± 11; (concentration (uM unless unit written): 20, treatment time: 6 h) 96.8 ± 14; (concentration (uM unless unit written): 20, treatment time: 24 h) 76.3 ± 13.
For `CCCc1nc2c(C)cc(-c3nc4ccccc4n3C)cc2n1Cc1ccc(-c2ccccc2C(=O)O)cc1` [Telmisartan], the L1 promoter activity was 104 ± 11 (concentration (uM unless unit written): 1.25, treatment time: 6 h); 112 ± 8 (concentration (uM unless unit written): 1.25, treatment time: 24 h); 105 ± 8.6 (concentration (uM unless unit written): 2.5, treatment time: 6 h); 114 ± 9.7 (concentration (uM unless unit written): 2.5, treatment time: 24 h); 115 ± 3.5 under setting [19]; 114 ± 9 under setting [20]. In addition, the L1 promoter activity is, setting by setting: under setting [1], 119 ± 15; under setting [2], 119 ± 3.6.
Consider `Clc1ccccc1CN1CCc2sccc2C1` [Ticlopidine], for which the L1 promoter activity by setting is: under setting [1], 117 ± 5.9; under setting [2], 124 ± 4.8; under setting [3], 107 ± 9.2; under setting [4], 104 ± 9.1; under setting [5], 96.2 ± 12; under setting [6], 113 ± 22. Further, the L1 promoter activity runs as follows: under setting [7], 97.5 ± 13; under setting [8], 129 ± 11.
As for `NS(=O)(=O)c1cc2c(cc1Cl)NC(C(Cl)Cl)NS2(=O)=O` (stereo unspecified) [Trichlormethiazide], the L1 promoter activity was 103 ± 10 under setting [7]; 66.9 ± 13 under setting [8]; 108 ± 17 under setting [18]; 59.6 ± 9.6 (concentration (uM unless unit written): 250, treatment time: 24 h); 102 ± 6.6 under setting [9]; 99.7 ± 27 under setting [11].
As to `CC(=O)N[C@H]1[C@@H](O[C@@H]2O[C@H](CC(O)[C@H]3O[C@@H](n4ccc(=O)[nH]c4=O)[C@H](O)[C@@H]3O)[C@H](O)[C@H](O)[C@H]2NC(=O)/C=C/CC(C)C)O[C@H](CO)[C@@H](N)[C@@H]1O` (stereo partly specified) [Tunicamycin], the L1 promoter activity (concentration (uM unless unit written): 5 μg/mL, treatment time: 6 h) came out at 76.6 ± 8.1; the L1 promoter activity (concentration (uM unless unit written): 5 μg/mL, treatment time: 24 h) turned out to be 73.3 ± 3.2; the L1 promoter activity (concentration (uM unless unit written): 10 μg/mL, treatment time: 6 h) is 66.6 ± 7.3; the L1 promoter activity (concentration (uM unless unit written): 10 μg/mL, treatment time: 24 h) is 84.5 ± 11; the L1 promoter activity (concentration (uM unless unit written): 20 μg/mL, treatment time: 6 h) was 63.5 ± 3.2; the L1 promoter activity (concentration (uM unless unit written): 20 μg/mL, treatment time: 24 h) is 72.1 ± 7.7. The same compound returned an L1 promoter activity (concentration (uM unless unit written): 40 μg/mL, treatment time: 24 h) of 75.8 ± 6.2.
For the compound `CCCC(CCC)C(=O)O` [Valproic acid], the L1 promoter activity is, setting by setting: under setting [12], 90.2 ± 25; under setting [13], 18.5 ± 1.6.
For the compound `CC[C@]1(O)C[C@@H]2CN(CCc3c([nH]c4ccccc34)[C@@](C(=O)OC)(c3cc4c(cc3OC)N(C)[C@H]3[C@@](O)(C(=O)OC)[C@H](OC(C)=O)[C@]5(CC)C=CCN6CC[C@]43[C@@H]65)C2)C1` [Vinblastine], the L1 promoter activity came out at 92.8 ± 15 (concentration (uM unless unit written): 0.1, treatment time: 6 h); 181 ± 31 (concentration (uM unless unit written): 0.1, treatment time: 24 h); 92.1 ± 23 under setting [14]; 161 ± 30 under setting [15]; 94 ± 12 under setting [19]; 207 ± 24 under setting [20].
Regarding `CC(=O)CC(c1ccccc1)c1c(O)c2ccccc2oc1=O` (stereo unspecified) [Warfarin], the L1 promoter activity is, setting by setting: under setting [3], 98.9 ± 11; under setting [4], 85 ± 5.2; under setting [5], 89.5 ± 12; under setting [6], 85.8 ± 14; under setting [7], 91.7 ± 11; under setting [8], 74.2 ± 9.4. Moreover, the L1 promoter activity under setting [9] is 90.8 ± 25 and the L1 promoter activity under setting [10] was found to be 64.1 ± 6.6.
For the compound `Cc1cc(CC(=O)O)n(C)c1C(=O)c1ccc(Cl)cc1` [Zomepirac], the L1 promoter activity reads like this: under setting [9], 102 ± 9.6; under setting [10], 86.3 ± 6.3.
Regarding `Clc1ccc(C(c2ccccc2Cl)C(Cl)Cl)cc1` (stereo unspecified) [o.p'-Dichlorodiphenyldichloroethane], the L1 promoter activity by setting is: under setting [5], 97.3 ± 5; under setting [6], 108 ± 5.8; under setting [7], 77.5 ± 11.
